Experimental findings from patent US20100297038A1, “Benzimidazole Derivatives And Their Use As Cooling Agents” (Givaudan S.A., priority 2008, published 2010) are described below.

The experiment can be described thus: Cooling intensity: panelists taste aqueous solutions, compared with menthol at 2 ppm. To be noted: tasted by a small group of panelists. The class given is in vivo, human.
On to `Cc1nc2ccccc2n1CCc1ccccc1` [Example 1, 2-methyl-1-phenethyl-1H-benzo[d]imidazole], for which the “Concentration with a cooling intensity similar to or slightly higher than that of a solution of menthol at 2 ppm” value (“Concentration” for short) is reported as 0.03 ppm. Consider `COc1ccc(CCn2c(C)nc3ccccc32)cc1` [Example 2, 1-(4-methoxyphenethyl)-2-methyl-1H-benzo[d]imidazole], for which the “Concentration” value amounted to 0.1 ppm. `CC1CCC(C(C)C)C(O)C1` (stereo not shown) [I-Menthol, I-menthol]: the “Concentration” value is 2.0 ppm. As for `CCNC(=O)C1CC(C)CCC1C(C)C` (stereo not shown) [WS-3, N-ethyl p-menthanecarboxamide], the “Concentration” value is listed as 1.5 ppm.
